Assay results taken from the Kinase Knowledgebase extract (Sharma et al. 2016).
pIC50: −log10 of the molar value.

Target: PIK3CB;PIK3CG;PIK3CD;PIK3CA (human) (UniProt P48736)
Assay: Inhibition of PIK3CA/PIK3CB/PIK3CD/PIK3CG Kinase Activity

pIC50	Compound
6.25	CN(C)CCN(C)c1cc(C(=O)O)nc2c(-c3cc(F)ccc3O)nc(N3CCOCC3)nc12
6.03	Cc1cc(O)ccc1-c1nc(N2CCOCC2)nc2c(N(C)CCO)cc(C(=O)O)nc12
7.18	CN(C)c1cc(C(=O)O)nc2c(-c3cc(F)ccc3O)nc(N3CCOCC3)nc12
5.74	COCCNc1cc(C(=O)O)nc2c(-c3cccc(COC)c3)nc(N3CCOCC3)nc12
7.05	COCCNc1cc(C(=O)O)nc2c(-c3ccc(F)cc3O)nc(N3CCOCC3)nc12
6.97	O=C(O)c1cc(Cl)c2nc(N3CCOCC3)nc(-c3cccc(O)c3)c2n1
6.46	CN(C)c1cc(C(=O)O)nc2c(-c3ccc(O)cc3)nc(N3CCOCC3)nc12
6.48	CN(C)c1cc(C(=O)O)nc2c(-c3ccc(F)c(CO)c3)nc(N3CCOCC3)nc12
8.00	CN(CCO)c1cc(C(=O)O)nc2c(-c3cccc(F)c3O)nc(N3CCOCC3)nc12
7.08	CN(C)c1cc(C(=O)O)nc2c(-c3ccc(F)cc3O)nc(N3CCOCC3)nc12
7.57	O=C(O)c1cc(NCCO)c2nc(N3CCOCC3)nc(-c3cccc(CO)c3)c2n1
7.09	O=C(O)c1cc(NCCO)c2nc(N3CCOCC3)nc(-c3ccccc3O)c2n1
7.52	CS(=O)(=O)N1CCN(c2cc(C(=O)O)nc3c(-c4ccccc4)nc(N4CCOCC4)nc23)CC1
6.52	CN(CCO)c1cc(C(=O)O)nc2c(-c3ccc(F)c(CO)c3)nc(N3CCOCC3)nc12
7.32	CNc1cc(C(=O)O)nc2c(-c3cccc(F)c3O)nc(N3CCOCC3)nc12
6.88	CN(C)c1cc(C(=O)O)nc2c(-c3cccc4[nH]ccc34)nc(N3CCOCC3)nc12
6.54	COCCN(C)c1cc(C(=O)O)nc2c(-c3ccc(O)cc3)nc(N3CCOCC3)nc12
6.47	CS(=O)(=O)c1cc(C(=O)O)nc2c(-c3ccc(O)c(F)c3)nc(N3CCOCC3)nc12
6.77	COCCN(C)c1cc(C(=O)O)nc2c(-c3ccc4[nH]ccc4c3)nc(N3CCOCC3)nc12
6.86	CN(C)CCN(C)c1cc(C(=O)O)nc2c(-c3cccc4[nH]ccc34)nc(N3CCOCC3)nc12
5.89	COCCN(C)c1cc(C(=O)O)nc2c(-c3cc(F)cc(F)c3)nc(N3CCOCC3)nc12
7.24	O=C(O)c1cc(-c2cccc3ccccc23)c2nc(N3CCOCC3)nc(-c3cccc(O)c3)c2n1

pIC50	Compound
7.13	CN(CCO)c1cc(C(=O)O)nc2c(-c3cccc(CO)c3)nc(N3CCOCC3)nc12
5.30	COCc1cccc(-c2nc(N3CCOCC3)nc3c(N(C)C)cc(C(=O)O)nc23)c1
7.11	CN(CCO)c1cc(C(=O)O)nc2c(-c3cccc4[nH]ccc34)nc(N3CCOCC3)nc12
6.46	COCCNc1cc(C(=O)O)nc2c(-c3ccc(CO)cc3)nc(N3CCOCC3)nc12
6.89	COCCNc1cc(C(=O)O)nc2c(-c3cccc4[nH]ccc34)nc(N3CCOCC3)nc12
5.35	COc1cccc(-c2nc(N3CCOCC3)nc3ccc(C(=O)O)nc23)c1
7.74	COCCNc1cc(C(=O)O)nc2c(-c3cccc(F)c3O)nc(N3CCOCC3)nc12
7.12	O=C(O)c1cc(NCCO)c2nc(N3CCOCC3)nc(-c3cccc(O)c3)c2n1
8.05	COCCN(C)c1cc(C(=O)O)nc2c(-c3cccc(F)c3O)nc(N3CCOCC3)nc12
7.03	COCCOc1cc(C(=O)O)nc2c(-c3cc(O)cc(F)c3)nc(N3CCOCC3)nc12
6.84	CNc1cc(C(=O)O)nc2c(-c3cccc(O)c3)nc(N3CCOCC3)nc12
6.59	COCCOc1cc(C(=O)O)nc2c(-c3cccc(O)c3)nc(N3CCOCC3)nc12
7.47	CN(C)c1cc(C(=O)O)nc2c(-c3cccc(CO)c3)nc(N3CCOCC3)nc12
6.86	CS(=O)(=O)c1cc(C(=O)O)nc2c(-c3cc(F)ccc3O)nc(N3CCOCC3)nc12
7.21	COCCN(C)c1cc(C(=O)O)nc2c(-c3ccc(F)cc3O)nc(N3CCOCC3)nc12
7.82	CS(=O)(=O)c1cc(C(=O)O)nc2c(-c3cc(O)cc(F)c3)nc(N3CCOCC3)nc12
8.10	COCCN(C)c1cc(C(=O)O)nc2c(-c3cccc(CO)c3)nc(N3CCOCC3)nc12
6.17	O=C(O)c1cc(Cl)c2nc(N3CCOCC3)nc(-c3ccccc3)c2n1
6.65	Cc1cc(C(=O)O)nc2c(-c3cccc(O)c3)nc(N3CCOCC3)nc12
6.11	CNc1cc(C(=O)O)nc2c(-c3cccc4[nH]ccc34)nc(N3CCOCC3)nc12
6.39	CNc1cc(C(=O)O)nc2c(-c3ccc(F)cc3O)nc(N3CCOCC3)nc12
7.55	COCCN(C)c1cc(C(=O)O)nc2c(-c3cccc(O)c3)nc(N3CCOCC3)nc12

pIC50	Compound
5.97	COc1cccc(-c2nc(N3CCOCC3)nc3c(Cl)cc(C(=O)O)nc23)c1
7.19	O=C(O)c1cc(NCCO)c2nc(N3CCOCC3)nc(-c3cc(O)cc(F)c3)c2n1
7.10	CC(=O)N1CCN(c2cc(C(=O)O)nc3c(-c4cccc(O)c4)nc(N4CCOCC4)nc23)CC1
7.20	O=C(O)c1ccc2nc(N3CCOCC3)nc(-c3cccc(O)c3)c2n1
7.62	COc1ccccc1-c1cc(C(=O)O)nc2c(-c3cccc(O)c3)nc(N3CCOCC3)nc12
6.34	CN(C)CCN(C)c1cc(C(=O)O)nc2c(-c3ccccc3O)nc(N3CCOCC3)nc12
5.73	COCc1cccc(-c2nc(N3CCOCC3)nc3c(N(C)CCO)cc(C(=O)O)nc23)c1
7.82	CS(=O)(=O)N1CCN(c2cc(C(=O)O)nc3c(-c4cccc(O)c4)nc(N4CCOCC4)nc23)CC1
7.37	O=C(O)c1cc(NCCO)c2nc(N3CCOCC3)nc(-c3cccc(F)c3O)c2n1
6.26	COCCN(C)c1cc(C(=O)O)nc2c(-c3ccc(CO)cc3)nc(N3CCOCC3)nc12
6.52	CNc1cc(C(=O)O)nc2c(-c3cc(F)ccc3O)nc(N3CCOCC3)nc12
6.14	O=C(O)c1cc(NCCO)c2nc(N3CCOCC3)nc(-c3ccc(O)cc3)c2n1
7.64	CN(C)c1cc(C(=O)O)nc2c(-c3ccccc3O)nc(N3CCOCC3)nc12
5.60	COCc1cccc(-c2nc(N3CCOCC3)nc3c(NCCO)cc(C(=O)O)nc23)c1
7.14	COCCNc1cc(C(=O)O)nc2c(-c3cc(F)ccc3O)nc(N3CCOCC3)nc12
6.30	COCCNc1cc(C(=O)O)nc2c(-c3ccc(O)cc3)nc(N3CCOCC3)nc12
5.60	COCCOc1cc(C(=O)O)nc2c(-c3ccc(O)cc3)nc(N3CCOCC3)nc12
6.66	CN(CCO)c1cc(C(=O)O)nc2c(-c3ccc(F)cc3O)nc(N3CCOCC3)nc12
6.07	O=C(O)c1ccc2nc(N3CCOCC3)nc(-c3ccc(O)cc3)c2n1
7.72	COCCN(C)c1cc(C(=O)O)nc2c(-c3cc(O)cc(F)c3)nc(N3CCOCC3)nc12
5.96	CN(C)c1cc(C(=O)O)nc2c(-c3cccc(C#N)c3)nc(N3CCOCC3)nc12
7.59	CS(=O)(=O)c1cc(C(=O)O)nc2c(-c3cccc(F)c3O)nc(N3CCOCC3)nc12
